In brackets after ≈: the same amount, converted by molar mass. Blank lines part the entries; values can stand above or below the compound they belong to.
Columns and labels:
Test in all cases: ≥ marks a high value that may be exact or a test limit, other limits are often not marked, values filed in µg/mL are converted to µM
[1] = test system: Klebsiella pneumoniae ATCC 27736
[2] = test system: Bacillus subtilis ATCC 6633
[3] = test system: Pseudomonas aeruginosa ATCC BAA-427
Bacillus subtilis 168 HT = test system: Bacillus subtilis 168 HT
Escherichia coli MG1655 = test system: Escherichia coli MG1655
[4] = test system: Escherichia coli ATCC 25922
[5] = test system: Candida albicans ATCC 10231
[6] = test system: Staphylococcus aureus ATCC 25923
[7] = test system: Enterococcus faecalis PCM 2673
[8] = test system: Pseudomonas aeruginosa ATCC 9027
[9] = test system: Micrococcus luteus ATCC 49732
[10] = test system: Escherichia coli ATCC 11775
[11] = test system: Staphylococcus aureus ATCC 12600
Vibrio cholerae = test system: Vibrio cholerae
[12] = test system: Bacillus subtilis MTCC 14416
[13] = test system: Staphylococcus aureus MTCC 9542
[14] = test system: Pseudomonas aeruginosa ATCC 27853
[15] = test system: Staphylococcus aureus ATCC 43300
[16] = test system: Staphylococcus aureus ATCC BAA-1556
[17] = test system: Escherichia coli K12 MG1655
[18] = test system: Candida albicans ATCC 14053

SMILES: CC[C@H](C)[C@H](NC(=O)[C@H](CCCN=C(N)N)NC(=O)[C@H](CCSC)NC(=O)[C@@H](NC(=O)[C@H](CCCN=C(N)N)NC(=O)[C@@H](N)Cc1ccccc1)[C@@H](C)CC)C(=O)N[C@@H](CC(C)C)C(=O)N[C@@H](CCCN=C(N)N)C(=O)N[C@H](C(=O)N[C@@H](CC(C)C)C(=O)N[C@@H](CCCCN)C(=O)N[C@@H](CC(C)C)C(=O)O)C(C)C [FRIMRILRVLKL]
MIC (Bacillus subtilis 168 HT): 10.3 µM (≈ 16 µg/mL) | MIC (Escherichia coli MG1655): 10.3 µM (≈ 16 µg/mL)

SMILES: CC[C@H](C)[C@@H]1NC(=O)[C@H](CCCCN)NC(=O)[C@@H](NC(=O)[C@H](CC(C)C)NC(=O)[C@@H](NC(=O)[C@H](CCC(N)=O)NC(=O)[C@@H]2CCCN2C(=O)[C@H](CC(C)C)NC(=O)[C@H](Cc2ccccc2)NC(=O)[C@H](CC(N)=O)NC(=O)[C@H](C)NC(=O)[C@H](C)NC(=O)[C@H](CC(C)C)NC(=O)CNC(=O)[C@H](C)NC(=O)[C@@H](NC(=O)[C@@H](N)Cc2cnc[nH]2)[C@@H](C)CC)[C@@H](C)CC)CSSC[C@@H](C(N)=O)NC(=O)[C@H](CCCCN)NC(=O)[C@H](CCCN=C(N)N)NC(=O)[C@H](C)NC1=O [HIAGLAANFLPQILCKIARKC]
MIC (Vibrio cholerae): 11 µM (≈ 25 µg/mL) | MIC [12]: 21.9 µM (≈ 49.9 µg/mL) | MIC (Escherichia coli MG1655): 21.9 µM (≈ 49.9 µg/mL) | MIC [13]: ≥ 43.8 µM | MIC [14]: > 43.8 µM | MIC [15]: 43.8 µM (≈ 99.9 µg/mL)

SMILES: CC[C@H](C)[C@H](NC(=O)[C@H](Cc1c[nH]c2ccccc12)NC(=O)[C@H](CCCN=C(N)N)NC(=O)[C@H](CCCN=C(N)N)NC(=O)[C@H](Cc1c[nH]c2ccccc12)NC(=O)[C@@H](N)CCCCN)C(=O)N[C@@H](CC(C)C)C(=O)N[C@@H](Cc1c[nH]c2ccccc12)C(=O)N[C@@H](CC(C)C)C(N)=O [KWRRWILWL]
MIC [16]: 12.5 µM (≈ 16.9 µg/mL)

SMILES: CC[C@H](C)[C@H](NC(=O)[C@H](Cc1c[nH]c2ccccc12)NC(=O)[C@H](CCCN=C(N)N)NC(=O)[C@H](CCCN=C(N)N)NC(=O)[C@H](Cc1c[nH]c2ccccc12)NC(=O)[C@@H](N)CCCCN)C(=O)N[C@@H](CCCN=C(N)N)C(=O)N[C@@H](C)C(=O)N[C@@H](CC(C)C)C(N)=O [KWRRWIRAL]
MIC [16]: 25 µM (≈ 32.1 µg/mL)

SMILES: CC[C@H](C)[C@H](NC(=O)[C@H](Cc1c[nH]c2ccccc12)NC(=O)[C@H](CCCN=C(N)N)NC(=O)[C@H](CCCN=C(N)N)NC(=O)[C@H](Cc1c[nH]c2ccccc12)NC(=O)[C@@H](N)CC(C)C)C(=O)N[C@@H](CCCN=C(N)N)C(=O)N[C@@H](Cc1c[nH]c2ccccc12)C(=O)N[C@@H](CC(C)C)C(N)=O [LWRRWIRWL]
MIC [16]: 12.5 µM (≈ 17.3 µg/mL)

SMILES: CC(C)[C@H](NC(=O)[C@H](C)NC(=O)[C@@H](NC(=O)[C@H](C)NC(=O)[C@@H]1CCCN1)[C@@H](C)O)C(=O)N[C@@H](Cc1ccccc1)C(=O)N[C@@H](CCCCN)C(=O)O [PATAVFK]
MIC [18]: ≥ 303 µM | MIC [9]: ≥ 910 µM | MIC [10]: ≥ 101 µM | MIC [11]: ≥ 303 µM

SMILES: CC(C)[C@H](NC(=O)[C@H](C)NC(=O)[C@@H](NC(=O)CNC(=O)[C@@H]1CCCN1)[C@@H](C)O)C(=O)N[C@@H](C)C(=O)N[C@@H](CCCCN)C(=O)O [PGTAVAK]
MIC [18]: ≥ 97 µM | MIC [9]: ≥ 97 µM | MIC [10]: ≥ 97 µM | MIC [11]: ≥ 97 µM

SMILES: CC[C@H](C)[C@H](NC(=O)[C@H](CCCCN)NC(=O)[C@@H](N)Cc1c[nH]c2ccccc12)C(=O)N[C@@H](Cc1ccccc1)C(=O)N[C@@H](CCCCN)C(=O)N[C@@H](CC(C)C)C(=O)N[C@@H](CCCCN)C(=O)N[C@@H](CC(C)C)C(=O)N[C@@H](CCCN=C(N)N)C(=O)N[C@@H](CCSC)C(=O)N[C@@H](CC(C)C)C(=O)N[C@@H](Cc1c[nH]c2ccccc12)C(=O)O [WKIFKLKLRMLW]
MIC (Bacillus subtilis 168 HT): ≥ 38.5 µM | MIC (Escherichia coli MG1655): ≥ 77 µM

Next, values leading:

MIC [1]: 12 µM (≈ 30.3 µg/mL) | MIC [2]: 16 µM (≈ 40.5 µg/mL) | MIC [3]: 20 µM (≈ 50.6 µg/mL)
SMILES: CC[C@H](C)[C@H](NC(=O)CNC(=O)[C@H](CCCN=C(N)N)NC(=O)[C@H](Cc1ccccc1)NC(=O)[C@H](C)NC(=O)[C@H](Cc1cnc[nH]1)NC(=O)[C@H](Cc1cnc[nH]1)NC(=O)[C@H](Cc1ccccc1)NC(=O)[C@@H](N)Cc1ccccc1)C(=O)N[C@H](C(=O)N[C@@H](Cc1cnc[nH]1)C(=O)N[C@H](C(=O)NCC(=O)N[C@@H](CCCCN)C(=O)N[C@H](C(=O)N[C@H](C(=O)N[C@@H](Cc1cnc[nH]1)C(=O)N[C@@H](CCCN=C(N)N)C(=O)N[C@@H](CC(C)C)C(=O)N[C@H](C(=O)N[C@H](C(=O)NCC(N)=O)[C@@H](C)O)C(C)C)[C@@H](C)CC)[C@@H](C)O)C(C)C)C(C)C [FFHHAFRGIVHVGKTIHRLVTG]

MIC [1]: 6 µM (≈ 15.3 µg/mL) | MIC [2]: 8 µM (≈ 20.5 µg/mL) | MIC [3]: 12 µM (≈ 30.7 µg/mL)
SMILES: CC[C@H](C)[C@H](NC(=O)[C@H](Cc1cnc[nH]1)NC(=O)[C@H](Cc1cnc[nH]1)NC(=O)[C@H](Cc1ccccc1)NC(=O)[C@@H](N)Cc1ccccc1)C(=O)N[C@@H](Cc1ccccc1)C(=O)N[C@@H](CCCN=C(N)N)C(=O)NCC(=O)N[C@H](C(=O)N[C@H](C(=O)N[C@@H](Cc1cnc[nH]1)C(=O)N[C@H](C(=O)NCC(=O)N[C@@H](CCCCN)C(=O)N[C@H](C(=O)N[C@H](C(=O)N[C@@H](Cc1cnc[nH]1)C(=O)N[C@@H](CCCN=C(N)N)C(=O)N[C@@H](CC(C)C)C(=O)N[C@H](C(=O)N[C@H](C(=O)NCC(N)=O)[C@@H](C)O)C(C)C)[C@@H](C)CC)[C@@H](C)O)C(C)C)C(C)C)C(C)C [FFHHIFRGVVHVGKTIHRLVTG]

MIC [4]: 356 µM (≈ 512 µg/mL) | MIC [5]: 178 µM (≈ 256 µg/mL) | MIC [6]: > 356 µM | MIC [7]: ≥ 178 µM | MIC [8]: > 356 µM
SMILES: CC[C@H](C)[C@H](NC(=O)[C@H](CCCCN)NC(=O)[C@H](CCCCN)NC(=O)[C@H](C)NC(=O)[C@@H](NC(=O)[C@H](CC(=O)O)NC(=O)[C@H](Cc1ccccc1)NC(=O)[C@H](CC(C)C)NC(=O)CN)[C@@H](C)CC)C(=O)N[C@@H](C)C(=O)N[C@@H](CCC(=O)O)C(=O)N[C@@H](CO)C(=O)N[C@@H](Cc1ccccc1)C(N)=O [GLFDIAKKIAESF]

MIC [4]: 91.1 µM (≈ 128 µg/mL) | MIC [5]: 365 µM (≈ 512 µg/mL) | MIC [6]: > 365 µM | MIC [7]: ≥ 91.1 µM | MIC [8]: > 365 µM
SMILES: CC[C@H](C)[C@H](NC(=O)[C@H](CCCCN)NC(=O)[C@H](CCCCN)NC(=O)[C@@H](NC(=O)[C@@H](NC(=O)[C@H](CC(=O)O)NC(=O)[C@H](Cc1ccccc1)NC(=O)[C@H](CC(C)C)NC(=O)CN)[C@@H](C)CC)[C@@H](C)CC)C(=O)N[C@@H](C)C(=O)N[C@@H](CCC(=O)O)C(=O)N[C@@H](CO)C(=O)N[C@@H](C)C(N)=O [GLFDIIKKIAESA]

MIC [9]: 2 µM (≈ 4.91 µg/mL) | MIC [10]: 0.5 µM (≈ 1.23 µg/mL) | MIC [11]: 0.5 µM (≈ 1.23 µg/mL)
SMILES: CC[C@H](C)[C@H](NC(=O)[C@H](C)NC(=O)[C@H](C)NC(=O)[C@H](CCC(=O)O)NC(=O)[C@H](CCCCN)NC(=O)CNC(=O)[C@@H](NC(=O)[C@H](CC(N)=O)NC(=O)[C@H](CCCCN)NC(=O)[C@@H](NC(=O)[C@@H](NC(=O)[C@H](CO)NC(=O)[C@H](Cc1c[nH]c2ccccc12)NC(=O)[C@H](CC(C)C)NC(=O)CN)[C@@H](C)O)[C@@H](C)CC)C(C)C)C(=O)N[C@@H](C)C(=O)N[C@@H](C)C(=O)NCC(=O)N[C@@H](CCCCN)C(=O)N[C@@H](C)C(=O)N[C@H](C(=O)N[C@@H](CC(C)C)C(=O)NCC(=O)N[C@@H](CO)C(=O)N[C@@H](CC(C)C)C(N)=O)C(C)C [GLWSTIKNVGKEAAIAAGKAVLGSL]

MIC [17]: ≥ 33.8 µM | MIC (Bacillus subtilis 168 HT): ≥ 33.8 µM
SMILES: CC[C@H](C)[C@H](NC(=O)[C@H](CCC(N)=O)NC(=O)[C@@H](NC(=O)[C@@H](N)CC(C)C)C(C)C)C(=O)NCC(=O)N[C@H](C(=O)N[C@@H](CCCCN)C(=O)N[C@H](C(=O)N[C@H](C(=O)NCC(=O)N[C@H](C(=O)NCC(=O)N[C@@H](CCCN=C(N)N)C(=O)N[C@@H](CC(N)=O)C(=O)N[C@@H](Cc1ccc(O)cc1)C(=O)N[C@@H](C)C(=O)N[C@@H](C)C(=O)N[C@@H](Cc1cnc[nH]1)C(=O)O)C(C)C)C(C)C)[C@@H](C)CC)[C@@H](C)O [LVQIGTKIVGVGRNYAAH]

Source: DBAASP
